The subject of test [1] is Ramos B-cell line stimulated with IL-4. As to the kind of experiment: Assay for Ramos B-Cell Line Stimulated with IL-4 (CD23 upregulation, FACS). Format: cell-based, human. To be noted: read-out: Example 2 (IC50, Ramos B-cell line stimulated with IL-4). The text has this:
One means of assaying for such inhibition is detection of the effect of the 2,4-pyrimidinediamine compounds on the upregulation of downstream gene products. In the Ramos/IL4 assay, B-cells are stimulated with the cytokine Interleukin-4 (IL-4) leading to the activation of the JAK/Stat pathway through phosphorylation of the JAK family kinases, JAK1 and JAK3, which in turn phosphorylate and activate the transcription factor Stat-6. […] To study the effect of inhibitors (e.g., the 2,4-substituted pyrimindinediamine compounds described herein) on the JAK1 and JAK3 kinases, human Ramos B cells are stimulated with human IL-4. Twenty to 24 hours post stimulation, cells are stained for upregulation of CD23 and analyzed using flow cytometry (FACS). […] An exemplary assay of this type is described in greater detail in Example 2.
B-cells stimulated with cytokine Interleukin-4 (IL-4) activate the JAK/Stat pathway through phosphorylation of the JAK family kinases, JAK-1 and JAK-3, which in turn phosphorylate and activate the transcription factor Stat-6. […] To study the effect of inhibitors on the JAK family kinases, human Ramos B cells are stimulated with human IL-4.
The Ramos B-cell line was acquired from ATCC (ATCC Catalog No. CRL-1596). The cells were cultured in RPMI 1640 (Cellgro, MediaTech, Inc., Herndon, Va., Cat No. 10-040-CM) with 10% fetal bovine serum (FBS), heat inactivated (JRH Biosciences, Inc, Lenexa, Kans., Cat No. 12106-500M) according to ATCC propagation protocol. Cells were maintained at a density of 3.5×10^5. The day before the experiment, Ramos B-cells were diluted to 3.5×10^5 cells/mL to ensure that they were in a logarithmic growth phase.
Cells were spun down and suspended in RPMI with 5% serum. 5×10^4 cells were used per point in a 96-well tissue culture plate. Cells were pre-incubated with compound or DMSO (Sigma-Aldrich, St. Louis, Mo., Cat No. D2650) vehicle control for 1 hour in a 37° C. incubator.
Cells were then stimulated with IL-4 (Peprotech Inc., Rocky Hill, N.J., Cat No. 200-04) for a final concentration of 50 units/mL for 20-24 hours. Cells were then spun down and stained with anti-CD23-PE (BD Pharmingen, San Diego, Calif., Cat No. 555711) and analyzed by FACS. Detection was performed using a BD LSR I System Flow Cytometer, purchased from Becton Dickinson Biosciences of San Jose, Calif.

The next test has as its system Primary human T-cells. Briefly: Primary Human T-Cell Proliferation Assay Stimulated with IL-2 (CellTiter-Glo). Format: cell-based. The note with it: read-out: Example 3 (IC50, primary human T-cell proliferation stimulated with IL-2). The text has this:
The activity of the active compounds of the invention may further be characterized by assaying the effect of the 2,4-pyrimidinediamine compounds described herein on the proliferative response of primary human T-cells. In this assay, primary human T-cells derived from peripheral blood and pre-activated through stimulation of the T-cell receptor and CD28, proliferate in culture in response to the cytokine Interleukin-2 (IL-2). This proliferative response is dependent on the activation of JAK1 and JAK3 tyrosine kinases, which phosphorylate and activate the transcription factor Stat-5. The primary human T-cells are incubated with the 2,4-pyrimidinediamine compounds in the presence of IL-2 for 72 hours and at the assay endpoint intracellular ATP concentrations are measured to assess cell viability. A reduction in cell proliferation compared to control conditions is indicative of inhibition of the JAK kinase pathway. An exemplary assay of this type is described in greater detail in Example 3.
Primary human T-cells derived from peripheral blood and pre-activated through stimulation of the T-cell receptor and CD28, proliferate in vitro in response to the cytokine Interleukin-2 (IL-2). This proliferative response is dependent on the activation of JAK-1 and JAK-3 tyrosine kinases, which phosphorylate and activate the transcription factor Stat-5.
Human primary T cells were prepared as follows. Whole blood was obtained from a healthy volunteer, mixed 1:1 with PBS, layered on to Ficoll Hypaque (Amersham Pharmacia Biotech, Piscataway, N.J., Catalog #17-1440-03) in 2:1 blood/PBS:ficoll ratio and centrifuged for 30 min at 4° C. at 1750 rpm. The lymphocytes at the serum: ficoll interface were recovered and washed twice with 5 volumes of PBS. The cells were resuspended in Yssel's medium (Gemini Bio-products, Woodland, Calif., Catalog #400-103) containing 40 U/mL recombinant IL2 (R and D Systems, Minneapolis, Minn., Catalog #202-IL (20 μg)) and seeded into a flask pre-coated with 1 μg/mL anti-CD3 (BD Pharmingen, San Diego, Calif., Catalog #555336) and […] (Immunotech, Beckman Coulter of Brea Calif., Catalog #IM1376). The primary T-cells were stimulated for 3-4 days, then transferred to a fresh flask and maintained in RPMI with 10% FBS and 40 U/mL IL-2.
Primary T-cells were washed twice with PBS to remove the IL-2 and resuspended in Yssel's medium at 2×10^6 cells/mL. 50 μL of cell suspension containing 80 U/mL IL-2 was added to each well of a flat bottom 96 well black plate. For the unstimulated control, IL-2 was omitted from the last column on the plate. Compounds were serially diluted in dimethyl sulfoxide (DMSO, 99.7% pure, cell culture tested, Sigma-Aldrich, St. Louis, Mo., Catalog No. D2650) from 5 mM in 3-fold dilutions, and then diluted 1:250 in Yssel's medium. 50 μL of 2× compound was added per well in duplicate and the cells were allowed to proliferate for 72 hours at 37° C.
Proliferation was measured using CellTiter-Glo® Luminescent Cell Viability Assay (Promega), which determines the number of viable cells in culture based on quantitation of the ATP present, as an indicator of metabolically active cells. The substrate was thawed and allowed to come to room temperature. After mixing the Cell Titer-Glo reagent and diluent together, 100 μL was added to each well. The plates were mixed on an orbital shaker for two minutes to induce lysis and incubated at room temperature for an additional ten minutes to allow the signal to equilibrate. Detection was performed using a Wallac Victor2 1420 multilabel counter purchased from Perkin Elmer, Shelton, Conn.

Where [2] appears, read: Homo sapiens, Ramos, IL-4 50 units/mL, 20-24 hours, anti-CD23-PE staining, FACS.
Where [3] appears, read: Homo sapiens, T-cell, 72 h, IL-2, 72 hours, ATP quantitation (CellTiter-Glo).
[4] abbreviates: IL-4 50 units/mL, 20-24 hours, anti-CD23-PE staining, FACS.
The mark [5] stands for this setting: IL-2, 72 hours, ATP quantitation (CellTiter-Glo).

The structures appear in SMILES notation. Like-named read-outs stand apart in the source and are kept apart here.

With `Cc1cnc(Nc2ccc(S(N)(=O)=O)cc2)nc1Nc1ccc2c(c1)C(NS(C)(=O)=O)CC2` (racemic) [VI-2, (+/−)-N2-(4-Aminosulfonylphenyl)-5-methyl-N4-[1-(methylsulfonyl)aminoindan-6-yl]-2,4-pyrimidinediamine], the IC50 was 279 nM in test [1] (setting [2]) and 1020 nM in the test with Primary human T-cells (setting [3]).
For `N#CCOc1ccc(Nc2nc(Nc3cccc(CS(N)(=O)=O)c3)ncc2F)cc1` [Compound I-1, N2-[3-(Aminosulfonylmethylene)phenyl]-5-fluoro-N4-(4-cyanomethyleneoxyphenyl)-2,4-pyrimidinediamine], the IC50 in test [1] (setting [4]) was determined as 48.9 nM; with Primary human T-cells (setting [5]), 93 nM.
As for `CCS(=O)(=O)NCc1ccc(Nc2nc(Nc3ccc(CS(=O)(=O)NC)cc3)ncc2C)cc1` [Compound I-2, N4-(4-ethylsulfonylaminomethyl)phenyl-5-methyl-N2-(4-methylaminosulfonylmethyl)phenyl-2,4-pyrimidinediamine], the results for the IC50 (in test [1] (setting [4]); in the test with Primary human T-cells (setting [5])) were 70.3 nM and 79.6 nM, respectively.
Turning to `CNS(=O)(=O)Cc1ccc(Nc2ncc(F)c(Nc3ccc(CNS(=O)(=O)C4CC4)cc3)n2)cc1` [Compound I-8, N4-(4-cyclopropylsulfonylaminomethyl)phenyl-5-fluoro-N2-(4-methylaminosulfonylmethyl)phenyl-2,4-pyrimidinediamine], the IC50 in test [1] (setting [4]) was found to be 147 nM; in the test with Primary human T-cells (setting [5]), 229 nM.
Regarding `CCS(=O)(=O)NCc1ccc(Nc2nc(Nc3ccc(CS(=O)(=O)NC)cc3)ncc2F)cc1` [Compound I-10, N4-(4-ethylsulfonylaminomethyl)phenyl-5-fluoro-N2-(4-methylaminosulfonylmethyl)phenyl-2,4-pyrimidinediamine], the values for the IC50 (in test [1] (setting [4]); in the test with Primary human T-cells (setting [5])) were 285 nM and 424 nM, respectively.
Turning to `Cc1cnc(Nc2ccc(CNS(=O)(=O)C3CC3)cc2)nc1Nc1ccc(CNS(=O)(=O)C2CC2)cc1` [II-1, N2,N4-bis(4-cyclopropylsulfonylaminomethyl)phenyl-5-methyl-2,4-pyrimidinediamine], the IC50 in test [1] (setting [4]) worked out at 45.2 nM; in the test on Primary human T-cells (setting [5]), 26 nM.
Regarding `Cc1cnc(Nc2ccc(CCNS(=O)(=O)C3CC3)cc2)nc1Nc1ccc(CCNS(=O)(=O)C2CC2)cc1` [II-2, N2,N4-bis[4-(2-cyclopropylsulfonylamino)ethyl]phenyl-5-methyl-2,4-pyrimidine diamine], the IC50 in test [1] (setting [4]) was 202 nM; with Primary human T-cells (setting [5]), 317 nM.
Consider `COc1cc(Nc2nc(Nc3ccc4c(c3)CN(S(N)(=O)=O)CC4)ncc2F)ccc1Cl` [III-1, N2-(2-Aminosulfonyl-1,2,3,4-tetrahydroisoquinolin-7-yl)-N4-(4-chloro-3-methoxyphenyl)-5-fluoro-2,4-pyrimidinediamine], for which the IC50 in test [1] (setting [2]) was found to be 129 nM; in the test on Primary human T-cells (setting [3]) it was 279 nM.
Taken in the same sequence, the figures for `NS(=O)(=O)N1CCc2ccc(Nc3ncc(F)c(Nc4ccc(CNS(=O)(=O)C5CC5)cc4)n3)cc2C1` [III-2, N2-(2-Aminosulfonyl-1,2,3,4-tetrahydroisoquinolin-7-yl)-N4-[4-(cyclopropylsulfonylaminomethyl)phenyl]-5-fluoro-2,4-pyrimidinediamine] were 27.4 nM and 16.6 nM.
Take `C#CCOc1ccc(Nc2nc(Nc3ccc4c(c3)CN(S(N)(=O)=O)CC4)ncc2F)cc1` [III-4, N2-(2-Aminosulfonyl-1,2,3,4-tetrahydroisoquinolin-7-yl)-N4-(4-(prop-2-ynyloxy)phenyl)-5-fluoro-2,4-pyrimidinediamine]: the IC50 in test [1] (Homo sapiens, Ramos) came to 101 nM; in the test with Primary human T-cells (Homo sapiens, T-cell, 72 h), 129 nM.
As for `CC1(C)Oc2cc(Nc3nc(Nc4cccc(CS(N)(=O)=O)c4)ncc3F)cnc2NC1=O` [IV-1, N2-[3-(Aminosulfonylmethylene)phenyl]-N4-[2,2-dimethyl-3-oxo-4H-pyrid[1,4]oxazin-7-yl]-5-fluoro-2,4-pyrimidinediamine], the IC50 came out at 133 nM in test [1] (setting [4]) and 482 nM in the test with Primary human T-cells (setting [5]).
On to `CN1C(=O)C(C)(C)Oc2cc(Nc3nc(Nc4cccc(CS(N)(=O)=O)c4)ncc3F)cnc21` [IV-2, N2-[3-(Aminosulfonylmethylene)phenyl]-N4-[2,2-dimethyl-3-oxo-4-methyl-pyrid[1,4]oxazin-7-yl]-5-fluoro-2,4-pyrimidinediamine], for which the IC50 stood at 170 nM in test [1] (setting [4]) and 881 nM in the test with Primary human T-cells (setting [5]).

(Values after patent US8729087B2, “Compositions and methods for inhibition of the JAK pathway” (Rigel Pharmaceuticals, Inc., priority 2006, dated 2014).)
